# Results taken from patent publication US20250339409A1, “USES OF PAN BET INHIBITORS” (VYNE THERAPEUTICS INC., priority 2021, published 2025).
# Read-outs that look alike come from different tables or passages of the source.
# Test: Toxicokinetics in dogs after intra-articular injection: synovial fluid concentrations
# Format: in vivo, Beagle dogs
# Set-up: Synovial concentration of BETi1: unit not given here
# Conditions: for AUC(0-t) / Cmax / Tmax / concentration at 4 weeks: Beagle, dog, synovial fluid; for AUC(0-t): read-out: Synovia AUC0-672 h; for concentration at 4 weeks: other: intra-articular injection, read-out: synovial level at four weeks post-treatment
# Experimental: 16 Beagle dogs (8 males, 8 females) were assigned to four treatment groups to determine toxicity of BETi1 formulations following intra-articular injection.
# The experimental groups are presented below: • Group 1: Control; 0 mg of BETi1/animal dose • Group 2: Low Dose; 7.5 mg of BETi1/animal dose • Group 3: Mid Dose; 75 mg of BETi1/animal dose • Group 4: High Dose; 150 mg of BETi1/animal dose
# The control and BETi1 dose formulations were comprised as follows: Control: Vehicle (0.5% sodium carboxymethylcellulose; 0.1% polysorbate 80 in saline) • Low Dose: 0.75% w/w BETi1 suspended in Vehicle • Mid Dose: 7.5% w/w BETi1 suspended in Vehicle • High Dose: 15% w/w BETi1 suspended in Vehicle
# Study dogs were administered control treatment or treatment with a BETi1 formulation via intra-articular injection only to their right knee joints. Dosage volume was 1 mL/knee.
# Approximately 80 μL of synovial fluid was collected from animals from the right knee joint and placed into appropriately labeled tubes onto wet ice. Synovia was then transferred into labeled clear polypropylene tubes and frozen in the upright position over dry ice and stored in a freezer set to maintain <−60° C. until shipped on dry ice for analysis.
# Quantification of BETi1 concentrations in plasma and synovial fluid was performed using a qualified liquid chromatographic triple quadrupole mass spectrometric (LC-MS/MS) method. Synovial fluids were centrifuged before analysis.
# Toxicokinetic (TK) analysis of BETi1 plasma concentration-time and synovial fluid concentration-time data was performed. TK parameter values including maximum plasma/synovial fluid concentrations (Cmax), time to reach maximum concentrations (Tmax), and area under the plasma/synovial fluid concentrations vs. time curve (AUC) from time zero to 672-hour (AUC0-672h) was determined. Values that were below the lower limit of quantification (BLQ) were set to zero in the calculation of mean concentrations. When more than half of individual values at a single time point were BLQ, mean values were reported as BLQ.
smiles,measurement,setting,value
Cn1cc(-c2cccc(O)c2Oc2ccccc2)c2cc[nH]c2c1=O [BETi1],Synovial concentration of BETi1,"7.5 mg intra-articular, 72 h (day 3)",125.625
same,Synovial concentration of BETi1,"7.5 mg intra-articular, 336 h (day 14)",0
same,Synovial concentration of BETi1,"7.5 mg intra-articular, 504 h (day 21)",0
same,Synovial concentration of BETi1,"7.5 mg intra-articular, 672 h (day 28), in ng/mL",0.685
same,Synovial concentration of BETi1,"7.5 mg intra-articular, […] (day 7)",1.58
same,Synovial concentration of BETi1,"75 mg intra-articular, 72 h (day 3)",27050
same,Synovial concentration of BETi1,"75 mg intra-articular, 336 h (day 14)",6805
same,Synovial concentration of BETi1,"75 mg intra-articular, 504 h (day 21)",937
same,Synovial concentration of BETi1,"75 mg intra-articular, 672 h (day 28)",316
same,Synovial concentration of BETi1,"75 mg intra-articular, […] (day 7)",33700
same,Synovial concentration of BETi1,"150 mg intra-articular, 72 h (day 3)",47600
same,Synovial concentration of BETi1,"150 mg intra-articular, 336 h (day 14)",18070
same,Synovial concentration of BETi1,"150 mg intra-articular, 504 h (day 21)",7765
same,Synovial concentration of BETi1,"150 mg intra-articular, 672 h (day 28)",4375
same,Synovial concentration of BETi1,"150 mg intra-articular, […] (day 7)",36000
same,AUC(0-t),"7.5 mg/animal, Male, Study Day 1",25.4 µg·h/mL
same,Cmax,"7.5 mg/animal, Male, Study Day 1, read-out: Synovia Cmax",0.244 µg/mL
same,Tmax,"7.5 mg/animal, Male, Study Day 1, read-out: Synovia Tmax",120 h
same,AUC(0-t),"75 mg/animal, Female, Study Day 1",6090 µg·h/mL
same,Cmax,"75 mg/animal, Female, Study Day 1, read-out: Synovia Cmax",43.7 µg/mL
same,Tmax,"75 mg/animal, Female, Study Day 1, read-out: Synovia Tmax",120 h
same,AUC(0-t),"75 mg/animal, Male, Study Day 1",7890 µg·h/mL
same,Cmax,"75 mg/animal, Male, Study Day 1, read-out: Synovia Cmax",47.6 µg/mL
same,Tmax,"75 mg/animal, Male, Study Day 1, read-out: Synovia Tmax",120 h
same,AUC(0-t),"150 mg/animal, Female, Study Day 1",11300 µg·h/mL
same,Cmax,"150 mg/animal, Female, Study Day 1, read-out: Synovia Cmax",46.1 µg/mL
same,Tmax,"150 mg/animal, Female, Study Day 1, read-out: Synovia Tmax",204 h
same,AUC(0-t),"150 mg/animal, Male, Study Day 1",12500 µg·h/mL
same,Cmax,"150 mg/animal, Male, Study Day 1, read-out: Synovia Cmax",63.2 µg/mL
same,Tmax,"150 mg/animal, Male, Study Day 1, read-out: Synovia Tmax",120 h
same,concentration at 4 weeks,"both sexes, 75 mg/animal, intra-articular, 75 mg",1 µM
same,concentration at 4 weeks,"both sexes, 150 mg/animal, intra-articular, 150 mg",13 µM
same,Tmax,"both sexes, intra-articular, calculated, read-out: Tmax, synovial fluid (converted)",~120 h
same,Cmax,"both sexes, intra-articular, highest dose (150 mg), read-out: Cmax, synovial fluid",50 µg/mL
